Assay results taken from paper PMC8713996, “An anti-tuberculosis compound screen using a zebrafish infection model identifies an aspartyl-tRNA synthetase inhibitor” (Disease Models & Mechanisms, 2021).
≈ marks a conversion by molar mass, not a printed value.

What was measured:
M. tuberculosis H37Rv = assay: microbe, parasite or virus in culture; assay type: cell-based; details: Mycobacterium tuberculosis, read-out: MIC90 Mtb in vitro; for IC90: 144 h
[1] = tested on: Mtb-infected THP-1 macrophages; assay: microbe, parasite or virus in culture; assay type: cell-based, Mycobacterium tuberculosis; details: for MIC50 / IC50: Mycobacterium tuberculosis, read-out: MIC50 Mtb ex vivo; for IC50: THP-1, 96 h
[2] = tested on: M. marinum-tdTomato yolk-infected zebrafish embryos; details: in vivo
M. marinum M^USA = assay: microbe, parasite or virus in culture; assay type: cell-based; details: Mycobacterium marinum, read-out: MIC90 Mmar in vitro

Row | SMILES | MIC90 (M. tuberculosis H37Rv) [µM] | MIC50 [1] [µM] | Bacterial load (integrated red fluorescence) in infected embryos vs DMSO [2] | also measured
1 | O=C(Nc1ccc(Cl)cc1)NC1CC2CCC1C2 (stereo not drawn) [TBA37] | 13.6 ± 4.3 (≈ 3.6 µg/mL) | 5.5 ± 3.6 (≈ 1.46 µg/mL) | – | –
2 | COc1ccc(CNC(=O)c2c(C)nc3ccccn23)cc1 [TBA117] | 4 ± 1.4 (≈ 1.18 µg/mL) | 0.4 ± 0.1 (≈ 0.118 µg/mL) | – | –
3 | O=c1nc(N2CCN(CC3CCCCC3)CC2)sc2c([N+](=O)[O-])cc(C(F)(F)F)cc12 [macozinone] | – | – | significant reduction of the bacterial signal | –
4 | CC(=O)NC[C@H]1CN(c2ccc(N3CCSCC3)c(F)c2)C(=O)O1 [sutezolid] | – | – | significant reduction of the bacterial signal | –
5 | CC(C)(C)c1ccc(Cn2cnc([N+](=O)[O-])n2)cc1 [TBA139] | – | – | – | IC90 (M. tuberculosis H37Rv): 11.8 ± 12.4 µM; IC50 [1]: 4.6 ± 7.1 µM
6 | CCc1cc(C(N)=S)ccn1 [ethionamide] | – | – | significant reduction of the bacterial signal | –
7 | CC(C)C(=O)Nc1ccc(C(=O)Oc2ccccc2)c(O)c1 [TBA32] | 2 ± 0.5 (≈ 0.599 µg/mL) | 9.6 ± 16.6 (≈ 2.87 µg/mL) | – | –
8 | CO[C@H]1/C=C/O[C@@]2(C)Oc3c(C)c(O)c4c(O)c(c(/C=N/N5CCN(C)CC5)c(O)c4c3C2=O)NC(=O)/C(C)=C\C=C\[C@H](C)[C@H](O)[C@@H](C)[C@@H](O)[C@@H](C)[C@H](OC(C)=O)[C@@H]1C [rifampicin] | – | – | significant reduction of the bacterial signal | –
9 | CC12CC3CC(C)(C1)CC(C(=O)Nc1nc4ccccc4s1)(C3)C2 [TBA8] | 15.8 ± 7.5 (≈ 5.38 µg/mL) | 6.9 ± 8.7 (≈ 2.35 µg/mL) | – | –
10 | O=C(Nc1ccc(F)cc1)NC1CCCCCCC1 [TBA145] | 19 ± 5.7 (≈ 5.02 µg/mL) | 8 ± 14.2 (≈ 2.11 µg/mL) | – | –
11 | COc1ccc(Cc2nn3c(-c4ccccc4)nnc3s2)cc1 [TBA29] | 3.6 ± 0.9 (≈ 1.16 µg/mL) | 6.1 ± 4 (≈ 1.97 µg/mL) | – | –
12 | O=c1c2ccccc2oc2nc3n(c(=O)c12)CCCS3 [TBA161-A, 3,4-dihydro-chromeno[2′,3′:4,5]pyrimido[2,1-b][1,3]thiazine-6,7-dione] | 3.8 ± 3.1 (≈ 1.09 µg/mL) | 1.1 ± 0.9 (≈ 0.315 µg/mL) | – | MIC90 (M. marinum M^USA): 2.8 ± 1.7 µM (≈ 0.802 µg/mL)
13 | COc1nc2ccc(Br)cc2cc1[C@@H](c1ccccc1)[C@@](O)(CCN(C)C)c1cccc2ccccc12 [bedaquiline] | – | – | significant reduction of the bacterial signal | –
14 | Cc1nc2ccccn2c1C(=O)NCc1ccc2c(c1)OCO2 [TBA120] | 5.9 ± 2.6 (≈ 1.83 µg/mL) | 0.5 ± 0.2 (≈ 0.155 µg/mL) | – | –
15 | CC(C)=CCC/C(C)=C/CNCCNC1C2CC3CC(C2)CC1C3 (stereo not drawn) [SQ109] | – | – | significant reduction of the bacterial signal | –
16 | CCc1cccc2c(C(=O)COC(=O)c3ccc([N+](=O)[O-])s3)c[nH]c12 [TBA172] | 2.4 ± 0.4 (≈ 0.86 µg/mL) | > 30 | – | Intracellular activity (bacterial viability, macrophage protection) [1]: did not show activity
17 | Cc1ccc(-c2nnc3sc(Cc4ccccc4)nn23)cc1 [TBA38] | 9.9 ± 1.9 (≈ 3.03 µg/mL) | 5.6 ± 3.4 (≈ 1.72 µg/mL) | – | –
18 | O=[N+]([O-])c1cn2c(n1)OC[C@@H](OCc1ccc(OC(F)(F)F)cc1)C2 [pretonamid] | – | – | significant reduction of the bacterial signal | –
19 | O=C(OCC(=O)c1c[nH]c2ccccc12)c1ccc([N+](=O)[O-])s1 [TBA61] | 2.2 ± 0.2 (≈ 0.727 µg/mL) | > 30 | – | Intracellular activity (bacterial viability, macrophage protection) [1]: did not show activity
20 | C[C@]1(COc2ccc(N3CCC(Oc4ccc(OC(F)(F)F)cc4)CC3)cc2)Cn2cc([N+](=O)[O-])nc2O1 [delamanid] | – | – | significant reduction of the bacterial signal | –
21 | Cc1ccc(NC(=O)C23CC4CC(CC2C4)C3)cc1 [TBA52] | – | – | – | IC90 (M. tuberculosis H37Rv): 9.6 ± 5.3 µM; IC50 [1]: 4.2 ± 6 µM
22 | COc1cccc(OCCNC(=O)c2cc([N+](=O)[O-])cc([N+](=O)[O-])c2)c1 [TBA57] | 1.7 ± 3.1 (≈ 0.614 µg/mL) | 1.6 ± 0.7 (≈ 0.578 µg/mL) | – | –
